Laboratory results from US6355633B1, “Aryl sulfonic acids and derivatives as FSH antagonists” (American Home Products Corporation, priority 1999, dated 2002).

Assays:
[1] = tested on: FSH-induced changes in ovarian follicular maturation; assay: Immature Rat Test Procedure (FSH-induced organ wet weight); format: in vivo; conditions: immature rats, twice daily for three days with half-maximal dose of hFSH; for IC50 (mg/Kg) ovaries: ovarian wet weight; for IC50 (mg/Kg) uterus: uterine wet weight
Description: Immature Rat Test Procedure
In order to assess the ability of compounds to affect FSH-induced changes in ovarian follicular maturation in vivo, immature rats (18 days of age) are treated twice daily for three days with compound in the presence of a half-maximal dose of purified human FSH. Animals are treated via the i.p. or p.o. routes. On the fourth day following treatment, animals are euthanized and the ovaries, uterus and spleen (the spleen is a control tissue that should not respond to FHS stimulation) collected for wet weight determination. In each experiment animals treated with vehicle alone or FSH alone are used as negative and positive controls, respectively.

FSH receptor = target: T1, FSH receptor (Homo sapiens, UniProt P23945); assay: FSH Receptor Radioligand Membrane Binding Standard Pharmacological Test Procedure; parameters: expressed in transfected cells; conditions: [125I]FSH binding to membranes of CHO cells stably transfected with the human FSH receptor
T1 sequence (P23945 18-695): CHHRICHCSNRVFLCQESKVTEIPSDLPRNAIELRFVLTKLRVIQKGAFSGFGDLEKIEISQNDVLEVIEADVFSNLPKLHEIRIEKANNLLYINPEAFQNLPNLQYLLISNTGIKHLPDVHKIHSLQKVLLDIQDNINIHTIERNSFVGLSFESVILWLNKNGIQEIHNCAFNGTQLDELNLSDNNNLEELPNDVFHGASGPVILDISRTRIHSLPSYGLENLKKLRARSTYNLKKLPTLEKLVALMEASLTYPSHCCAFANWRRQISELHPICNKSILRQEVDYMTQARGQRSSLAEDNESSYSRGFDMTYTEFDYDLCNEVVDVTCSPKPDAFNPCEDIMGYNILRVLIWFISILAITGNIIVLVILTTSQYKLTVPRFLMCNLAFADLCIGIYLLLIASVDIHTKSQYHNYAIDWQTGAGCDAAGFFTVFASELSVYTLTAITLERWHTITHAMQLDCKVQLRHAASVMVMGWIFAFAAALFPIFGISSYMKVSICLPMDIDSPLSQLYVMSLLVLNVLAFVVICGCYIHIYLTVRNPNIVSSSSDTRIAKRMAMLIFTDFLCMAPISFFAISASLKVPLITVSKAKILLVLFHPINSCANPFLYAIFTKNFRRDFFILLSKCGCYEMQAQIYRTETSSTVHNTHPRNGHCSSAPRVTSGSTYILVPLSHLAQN
Outline: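 Membranes from CHO cells stably expressing human FSH receptor; compounds pre-incubated 15 min at room temperature, then [125I]FSH added (diluted to 200 pM before addition) for 2 h at room temperature in pH 7.2 Tris buffer with protease inhibitors and BSA. Bound radioactivity after filtration counted by gamma counter; non-specific binding defined with unlabelled human FSH.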

Compound	IC50 (FSH receptor)	further results
2,2′-[(E)-1,2-Ethenediyl]bis[5-[[4-(methylthio)-3-(4-morpholinylsulfonyl)benzoyl]amino]benzenesulfonic Acid] [Example 30b]	1.2 µM	IC50 (mg/Kg) ovaries ([1]; ip): 8.1 mg/kg; IC50 (mg/Kg) uterus ([1]; ip): 1.3 mg/kg; IC50 (mg/Kg) ovaries ([1]; po): 23 mg/kg; IC50 (mg/Kg) uterus ([1]; po): 10 mg/kg
COCCOCCOc1ccc(C(=O)Nc2ccc(/C=C/c3ccc(NC(=O)c4ccc(OCCOCCOC)c(S(=O)(=O)N5CCOCC5)c4)cc3S(=O)(=O)O)c(S(=O)(=O)O)c2)cc1S(=O)(=O)N1CCOCC1 [Example 30a, 2,2′-[(E)-1,2-Ethenediyl]bis[5-[[4-[2-(2-methoxyethoxy)ethoxy]-3-(4-morpholinylsulfonyl)benzoyl]amino]benzenesulfonic Acid]]	1.6 µM	–
CS(=O)(=O)c1ccc(C(=O)Nc2ccc(/C=C/c3ccc(NC(=O)c4ccc(S(C)(=O)=O)c([N+](=O)[O-])c4)cc3S(=O)(=O)O)c(S(=O)(=O)O)c2)cc1[N+](=O)[O-] [Example 30c, 2.2′-[(E)-1,2-Ethenediyl]bis[5-[[(4-methylsulfonyl)-3-(nitro)-benzoyl]amino]benzenesulfonic Acid]]	1.6 µM	–
CS(=O)(=O)c1ccc(C(=O)Nc2ccc(/C=C/c3ccc(NC(=O)c4ccc(S(C)(=O)=O)c(S(=O)(=O)N5CCOCC5)c4)cc3S(=O)(=O)O)c(S(=O)(=O)O)c2)cc1S(=O)(=O)N1CCOCC1 [Example 30d, 2,2′-[(E)-1,2-Ethenediyl]bis[5-[[4-(methylsulfonyl)-3-(4-morpholinylsulfonyl)benzoyl]amino]benzenesulfonic Acid]]	1.5 µM	–
CSc1ccc(C(=O)Nc2ccc(/C=C/c3ccc(NC(=O)c4ccc(S(C)(=O)=O)c([N+](=O)[O-])c4)cc3S(=O)(=O)O)c(S(=O)(=O)O)c2)cc1S(=O)(=O)N1CCOCC1 [Example 30e]	2.5 µM	–
COCCNS(=O)(=O)c1cc(C(=O)Nc2ccc(/C=C/c3ccc(NC(=O)c4ccc(S(C)(=O)=O)c([N+](=O)[O-])c4)cc3S(=O)(=O)O)c(S(=O)(=O)O)c2)ccc1OC [Example 30f]	1.9 µM	–
COc1ccc(C(=O)Nc2ccc(/C=C/c3ccc(NC(=O)c4ccc(S(C)(=O)=O)cc4)cc3S(=O)(=O)O)c(S(=O)(=O)O)c2)cc1S(=O)(=O)N1CCOCC1 [Example 30g]	1.6 µM	–
COc1ccc(C(=O)Nc2ccc(/C=C/c3ccc(NC(=O)c4ccc(OC)c(S(=O)(=O)N5CCS(=O)(=O)CC5)c4)cc3S(=O)(=O)O)c(S(=O)(=O)O)c2)cc1S(=O)(=O)N1CCS(=O)(=O)CC1 [Example 30k, 2,2′-[(E)-1,2-Ethenediyl]bis[5-[[3-[(1,1-dioxido-4-thiomorpholinyl)sulfonyl]-4-methoxybenzoyl]amino]benzenesulfonic Acid]]	2 µM	–
COCCNS(=O)(=O)c1cc(C(=O)Nc2ccc(/C=C/c3ccc(NC(=O)c4ccc(OC)c(S(=O)(=O)NCCOC)c4)cc3S(=O)(=O)O)c(S(=O)(=O)O)c2)ccc1OC [Example 30m, 2,2′-[(E)-1,2-Ethenediyl]bis[5-[[4-methoxy-3-[[(2-methoxyethyl)amino]sulfonyl]benzoyl]amino]benzenesulfonic Acid]]	2.2 µM	–
CS(=O)(=O)c1ccc(C(=O)Nc2ccc(/C=C/c3ccc(NC(=O)c4ccc(S(C)(=O)=O)cc4)cc3S(=O)(=O)O)c(S(=O)(=O)O)c2)cc1 [Example 30q, 2,2′-[(E)-1,2-Ethenediyl]bis[5-[[4-(methylsulfonyl)benzoyl]amino]benzenesulfonic Acid]]	4 µM	–
O=C(Nc1ccc(/C=C/c2ccc(NC(=O)c3ccc(OC4CCOCC4)c(S(=O)(=O)N4CCOCC4)c3)cc2S(=O)(=O)O)c(S(=O)(=O)O)c1)c1ccc(OC2CCOCC2)c(S(=O)(=O)N2CCOCC2)c1 [Example 30r, 2,2′-[(E)-1,2-Ethenediyl]bis[5-[[3-(4-morpholinylsulfonyl)-4-[(tetrahydro-2H-pyran-4-yl)oxy]benzoyl]amino]benzenesulfonic Acid]]	1.1 µM	–
COc1ccc(C(=O)Nc2ccc(/C=C/c3ccc(NC(=O)c4ccc(OC)c(S(=O)(=O)N5CCOCC5)c4)cc3S(=O)(=O)O)c(S(=O)(=O)O)c2)cc1S(=O)(=O)N1CCOCC1 [Example 30s, 2,2′-[(E)-1,2-Ethenediyl]bis[5-[[4-methoxy-3-(4-morpholinylsulfonyl)benzoyl]amino]benzenesulfonic Acid]]	3 µM	–
COCCOc1ccc(C(=O)Nc2ccc(/C=C/c3ccc(NC(=O)c4ccc(OCCOC)c(S(=O)(=O)N5CCOCC5)c4)cc3S(=O)(=O)O)c(S(=O)(=O)O)c2)cc1S(=O)(=O)N1CCOCC1 [Example 30t, 2,2′-[(E)-1,2-Ethenediyl]bis[5-[[4-(2-methoxyethoxy)-3-(4-morpholinylsulfony)benzoyl]amino]benzenesulfonic Acid]]	1.3 µM	–
CCS(=O)(=O)c1ccc(C(=O)Nc2ccc(/C=C/c3ccc(NC(=O)c4ccc(S(=O)(=O)CC)cc4)cc3S(=O)(=O)O)c(S(=O)(=O)O)c2)cc1 [Example 32f, 2,2′-[(E)-1,2-Ethenediyl]bis[5-[[4-(ethylsulfonyl)benzoyl]amino]benzenesulfonic Acid]]	2.9 µM	–
COc1ccc(C(=O)Nc2ccc(/C=C/c3ccc(NC(=O)c4ccc(OC)c(S(=O)(=O)N5CCSCC5)c4)cc3S(=O)(=O)O)c(S(=O)(=O)O)c2)cc1S(=O)(=O)N1CCSCC1 [Example 33d, 2,2′-[(E)-1,2-Ethenediyl]bis[5-[[4-methoxy-3-(4-thiomorpholinylsulfonyl)benzoyl]amino]benzenesulfonic Acid]]	5.2 µM	–
COc1ccc(C(=O)Nc2ccc(/C=C/c3ccc(NC(=O)c4ccc(OC)c(S(=O)(=O)N5CCCC5)c4)cc3S(=O)(=O)O)c(S(=O)(=O)O)c2)cc1S(=O)(=O)N1CCCC1 [Example 33e, 2,2′-[(E)-1,2-Ethenediyl]bis[5-[[4-methoxy-3-(1-pyrrolidinylsulfonyl)benzoyl]amino]benzenesulfonic Acid]]	4.3 µM	–
COc1ccc(C(=O)Nc2ccc(/C=C/c3ccc(NC(=O)c4ccc(OC)c(S(=O)(=O)N5CCN(C(C)=O)CC5)c4)cc3S(=O)(=O)O)c(S(=O)(=O)O)c2)cc1S(=O)(=O)N1CCN(C(C)=O)CC1 [Example 34a, 2,2′-[(E)-1,2-Ethenediyl]bis[5-[[3-[(4-acetyl-1-piperazinyl)sulfonyl]-4-methoxybenzoyl]amino]benzenesulfonic Acid]]	3.8 µM	–
COc1ccc(C(=O)Nc2ccc(/C=C/c3ccc(NC(=O)c4ccc(OC)c(S(=O)(=O)N5CCN(C=O)CC5)c4)cc3S(=O)(=O)O)c(S(=O)(=O)O)c2)cc1S(=O)(=O)N1CCN(C=O)CC1 [Example 34b, 2,2′-[(E)-1,2-Ethenediyl]bis[5-[[3-[(4-formyl-1-piperazinyl)sulfonyl]-4-methoxybenzoyl]amino]benzenesulfonic Acid]]	1.6 µM	–
COc1ccc(C(=O)Nc2ccc(CCc3ccc(NC(=O)c4ccc(S(C)(=O)=O)cc4)cc3S(=O)(=O)O)c(S(=O)(=O)O)c2)cc1S(=O)(=O)N1CCOCC1 [Example 43a, 5-[[4-Methoxy-3-(4-morpholinylsulfonyl)benzoyl]amino]-2-[2-[4-[[4-(methylsulfonyl)benzoyl]amino]-2-sulfophenyl]ethyl]benzenesulfonic Acid]	2 µM	–
